Experimental data from US20090170945A1, “[…]” (priority 2007, published 2009).
Where a name gives a salt, the structure may show the parent alone.

Columns and labels:
[1] = Formation of impurities during salt formation (HPLC) and stability studies; conditions: for stability / impurities during salt formation: HPLC after the salt formation
Experimental: Formation of impurities during the salt forming process was tested by analyzing the samples by HPLC after the salt formation. Salts were also subjected to stability studies in the solid state; particularly, they were subjected to storage at 40 C and 75% RH in the open dish.

[2] = Thermogravimetric measurements
[3] = Hygroscopicity of solid state salts under storage at ambient and humid conditions; format: physicochemical; conditions: for hygroscopicity: storage at ambient and humid (40 C, 75% RH) conditions
Experimental: Hygroscopicity of solid state pregabalin salts that passed the salt formation criterion were tested under storage at ambient and humid (40 C, 75% RH) conditions.

[4] = per WO 96/40617; cited from earlier work
[5] = cited from earlier work
[6] = Solubility in organic solvents; format: physicochemical
Excerpt: Pregabalin is obtainable by known methods, such as those described in EPB 641 330. […].
Suitable solvents include aliphatic cyclic ethers (e.g. dioxane), esters, and ketones (each of the ethers, esters, and ketones having 3 to 12 carbon atoms), and mixtures thereof as well as mixtures with water. The solubility may be enhanced by heating the reaction mixture. The presence of water enhances the solubility of both reagents (i.e., the pregabalin and the corresponding acid) substantially. Due to the high water solubility of the salt, however, the amount of water in the solvent should be minimized prior to the isolation of the salt (e.g. by evaporation of the solvent prior to the isolation), and preferably water is excluded from the solvent entirely. On the other hand, it was shown that the pregabalin salts of the invention are only slightly soluble in aliphatic ethers (such as diisopropyl ether and methyl tert. butyl ether) so that aliphatic ethers may be used as solvents in the salt forming reaction or as antisolvents for the isolation. Furthermore, alcohols as solvents are preferably avoided, as they may be esterified in the presence of the sulfonic acid to yield corresponding esters as byproducts. Thus alcoholic solvents and other non-inert solvents (e.g. solvents that will react under the salt forming conditions) are generally avoided.

maleate
stability / impurities during salt formation [1]: formed with by-products

CC(C)C[C@H](CN)CC(=O)O.O=S(=O)(O)c1cccc2c(S(=O)(=O)O)cccc12 [napadisylate, pregabalin 1,5-naphthalene disulfonate]
solid state stability during prolonged storage ([1]; 40 C and 75% RH, open dish): unstable | stability / impurities during salt formation [1]: stable

Pregabalin Benzene Sulfonate [pregabalin besylate]
stability in solid state and in solution (overall statement) [1]: stable in both the solid state and in solution | stability / impurities during salt formation [1]: stable | thermal stability (thermogravimetry), stable up to [2]: 160-170 °C | hygroscopicity [3]: non-hygroscopic

CC(C)C[C@H](CN)CC(=O)O.O=S(=O)(O)CCS(=O)(=O)O [ethane-1,2-disulfonic acid salt]
hygroscopicity [3]: very hygroscopic | water uptake on storage in air ([3]; storage in air (R.T.) for 36 days): formation of a dihydrate

CC(C)C[C@H](CN)CC(=O)O.O=C(O)[C@@H](O)c1ccccc1 [pregabalin mandelate, Pregabalin (S)-mandelate]
stability in aqueous solutions ([1]; aqueous solution, lactam impurity): unstable | hydrolysis in water to free pregabalin [4]: easily hydrolyzes in water

CC(C)C[C@H](CN)CC(=O)O [pregabalin hydrochloride]
hygroscopicity [3]: liquefied

CC(C)C[C@H](CN)CC(=O)O [Pregabalin, S-(+)-4-amino-3-(2-methylpropyl)butanoic acid]
pKa (acidic carboxy group) ([5]; first of the two printed pKa values): 4.2 | pKa (basic amino group) ([5]; second of the two printed pKa values): 10.6 | solubility in ethanol [6]: poorly soluble

pregabalin mesylate
stability / impurities during salt formation [1]: stable

fumarate
stability / impurities during salt formation [1]: formed with by-products

Pregabalin p-toluene Sulfonate [pregabalin tosylate]
stability in solid state and in solution (overall statement) [1]: stable in both the solid state and in solution | stability / impurities during salt formation [1]: stable | thermal stability (thermogravimetry), stable up to [2]: 160-170 °C
